Results as given in PMC7845594, “Novel Immune Modulators Enhance Caenorhabditis elegans Resistance to Multiple Pathogens” (mSphere, 2021).

How the values were obtained:
glp-4(bn2) worms = experiment: Longevity (life span) assay; conditions: 50 μM in NGM, E. coli OP50, Fig 3A
[1] = tested on: glp-4(bn2) worms exposed to P. aeruginosa isolate PA2-61; experiment: Liquid killing assay with cystic fibrosis isolate; assay type: in vivo, Caenorhabditis elegans; conditions: isolate PA2-61, serial 2-fold dilutions from 50 µM to 12.5 μM
Procedure: We also tested these strains against a P. aeruginosa isolate from a pediatric cystic fibrosis patient, P. aeruginosa PA2-61, that we previously characterized ([22]).
The minimum effective concentration was calculated from the lowest concentration that retained statistically significant rescue of glp-4(bn2) C. elegans, a temperature-sensitive sterile strain, from exposure to P. aeruginosa PA14. […] Compounds were added in serial 2-fold dilutions from 50 µM to 12.5 μM. *, P < 0.05; **, P < 0.01; ***, P < 0.001. P values were calculated using Student’s t test. At least six wells containing 20 worms each per condition per replicate were used for determination of liquid killing. EC values were calculated based on at least three biological replicates. Error bars represent the standard error of the mean.
Liquid killing of C. elegans was performed as previously described with some changes ([91]). In brief, an overnight culture of LB medium was inoculated with a single colony of Pseudomonas aeruginosa strain PA14. Then, 400 µl of culture was spread onto a 10-cm slow-kill agar plate ([91]) and grown for 24 h at 37°C, followed by 24 h at 25°C. Bacteria were scraped from the plate, resuspended in S Basal medium, and added to 384-well plates with small molecules dissolved in DMSO. Solution in wells contained a final concentration of 40% SK media, 59% S Basal medium, 1% DMSO, and small molecules. For all liquid-based killing assays, solvent control wells contained 1% DMSO. MgSO4 and CaCl2 (300 µM) and cholesterol (1.6 µg/ml) were added to aid in production of virulence factors. Worms were sorted into 384-well plates using a COPAS FlowSort (Union Biometrica, Holliston, MA), incubated at 25°C until the DMSO control was roughly 35 to 55% dead, washed four times using an EL406 microplate washer (BioTek, VT), and stained with 50 μl of Sytox Orange at 1 µM to fluorescently stain dead worms. Wells were imaged in bright-field and RFP channels using the BioTek Cytation5, followed by image analysis using the CellProfiler software package to calculate fraction of dead worms in each well. […]

C. elegans transcriptome = experiment: Transcriptome profiling (Affymetrix microarrays), differentially expressed genes; assay type: in vivo, Caenorhabditis elegans
Procedure: To gain additional insight into the effect of LK molecules on C. elegans, young-adult, wild-type worms were treated with each drug at 100 µM for 8 h in the absence of pathogen. RNA was collected, and transcriptome profiling was performed.
Data were determined using Affymetrix microarrays, as described in Materials and Methods. Download Table S3, XLSX file, 0.07 MB.
Transcriptome profiling was performed on ∼6,000 wild-type, young adult worms incubated with either LK molecules or DMSO for 8 h. RNA isolation was performed using TRIzol extraction, followed by cleanup using RNeasy columns according to the manufacturer’s protocol. Each condition was analyzed in triplicate. Microarray data have been deposited in the GEO database, accession number GSE137516. […] Clustering and generation of the heat map was performed using Cluster 3.0 ([98]) and Treeview ([99]), respectively. Fold change of genes were normalized to average fold change of that gene over all clustered conditions. Genes and conditions were clustered using Euclidean distance and average linkages. […] Microarray data for non-LK molecules were collected from GEO omnibus. WormEXP was used as a secondary method for confirming statistical significance of potential pathways stimulated by each of the LK molecules ([100]). Gene ontologies were generated using DAVID ([101], [102]).

[2] = Downregulated genes, Affy_ID 171867_x_at

CNC(=O)Oc1c(Br)cc2sc(=O)oc2c1Br [LK34]
TD50 (time to 50% death), life span (glp-4(bn2) worms): 10.1 days
Dose dependence of rescue in liquid killing [1]: dose-dependent rescue
Fold Change (C. elegans transcriptome; Affy_ID 171867_x_at, listed under genes C09B9.6, F36H12.7, K07F5.1, R05F9.13, R13H9.2, R13H9.4, T13F2.10, T13F2.11, Y59E9AR.1, Y59E9AR.7, ZK354.1, downregulated genes): 0.2366
Fold Change, gene ZK354.1 (C. elegans transcriptome; [2]): 0.2366
Fold Change, gene ZK354.10 (C. elegans transcriptome; [2]): 0.2366
Fold Change, gene ZK354.11 (C. elegans transcriptome; [2]): 0.2366
Fold Change, gene ZK354.4 (C. elegans transcriptome; [2]): 0.2366
Fold Change, gene ZK354.5 (C. elegans transcriptome; [2]): 0.2366
Fold Change, gene ZK525.1 (C. elegans transcriptome; Downregulated genes, Affy_ID 172214_x_at): 0.3205
Fold Change, gene ZK484.8 (C. elegans transcriptome; Downregulated genes, Affy_ID 172381_x_at): 0.3874
Fold Change, gene ZK546.3 (C. elegans transcriptome; Downregulated genes, Affy_ID 172798_x_at): 0.1968
Fold Change, gene ZK131.7 (C. elegans transcriptome; Downregulated genes, Affy_ID 172871_x_at): 0.3375
Fold Change, gene ZK546.6 (C. elegans transcriptome; Downregulated genes, Affy_ID 172900_x_at): 0.1968
Fold Change, gene ZK669.2 (C. elegans transcriptome; Downregulated genes, Affy_ID 179491_at): 0.229
Fold Change, gene ZK550.2 (C. elegans transcriptome; Downregulated genes, Affy_ID 179513_at): 0.3085
Fold Change, gene ZK484.5 (C. elegans transcriptome; Downregulated genes, Affy_ID 182193_at): 0.3399
Fold Change, gene ZK593.1 (C. elegans transcriptome; Downregulated genes, Affy_ID 189095_at): 0.4248
Fold Change, gene ZK666.7 (C. elegans transcriptome; Downregulated genes, Affy_ID 194066_s_at): 0.02705
Fold Change (C. elegans transcriptome; Gene C05C12.3, Affy_ID 183355_s_at, downregulated genes): 0.4055
Fold Change (C. elegans transcriptome; Gene M163.1, Affy_ID 177298_at, downregulated genes): 0.426
Fold Change (C. elegans transcriptome; Gene R01E6.3, Affy_ID 189628_at, downregulated genes): 0.3684
Fold Change (C. elegans transcriptome; Gene R03E9.1, Affy_ID 193723_s_at, downregulated genes): 0.2017
Fold Change (C. elegans transcriptome; Gene R03E9.3, Affy_ID 174840_s_at, downregulated genes): 0.4768
Fold Change (C. elegans transcriptome; Gene R05F9.3, Affy_ID 172725_x_at, downregulated genes): 0.4019
Fold Change (C. elegans transcriptome; Gene R05F9.8, Affy_ID 172724_x_at, downregulated genes): 0.2519
Fold Change (C. elegans transcriptome; Gene R05G6.10, Affy_ID 192058_at, downregulated genes): 0.3616
Fold Change (C. elegans transcriptome; Gene R12C12.1, Affy_ID 190616_at, downregulated genes): 0.2442
Fold Change (C. elegans transcriptome; Gene R12E2.9, Affy_ID 180698_s_at, downregulated genes): 0.3881
Fold Change (C. elegans transcriptome; Gene R52.3, Affy_ID 177369_at, downregulated genes): 0.4244
Fold Change (C. elegans transcriptome; Gene T01C3.4, Affy_ID 188106_at, downregulated genes): 0.02189
Fold Change (C. elegans transcriptome; Gene T02B11.3, Affy_ID 174051_s_at, downregulated genes): 0.4182
Fold Change (C. elegans transcriptome; upregulated gene T13H2.4, Affy_ID 183082_s_at): 2.522
Fold Change (C. elegans transcriptome; upregulated gene T14F9.3, Affy_ID 173287_s_at): 3.284
Fold Change (C. elegans transcriptome; upregulated gene T14G8.1, Affy_ID 193596_s_at): 3.752
Fold Change (C. elegans transcriptome; upregulated gene T15B7.3, Affy_ID 188456_at): 3.308
Fold Change (C. elegans transcriptome; upregulated gene T19B10.2, Affy_ID 181715_s_at): 5.383
Fold Change (C. elegans transcriptome; upregulated gene T20F7.6, Affy_ID 173076_s_at): 3.038
Fold Change (C. elegans transcriptome; upregulated gene T21C12.2, Affy_ID 193009_at): 2.072
Fold Change (C. elegans transcriptome; upregulated gene T21E3.3, Affy_ID 173760_s_at): 2.777
Fold Change (C. elegans transcriptome; upregulated gene T22B7.3, Affy_ID 181552_at): 4.555
Fold Change (C. elegans transcriptome; upregulated gene T22B7.7, Affy_ID 173688_s_at): 13.7199
Fold Change (C. elegans transcriptome; upregulated gene T22F3.3, Affy_ID 176676_s_at): 2.752
Fold Change (C. elegans transcriptome; upregulated gene T24B8.3, Affy_ID 175022_s_at): 3.173
Fold Change (C. elegans transcriptome; upregulated gene T24B8.5, Affy_ID 178297_at): 134.612
Fold Change (C. elegans transcriptome; upregulated gene T24C4.4, Affy_ID 182815_at): 2.661
Fold Change (C. elegans transcriptome; upregulated gene T25G12.5, Affy_ID 174581_s_at): 2.002
Fold Change (C. elegans transcriptome; upregulated gene T26C5.1, Affy_ID 190852_at): 2.137
Fold Change (C. elegans transcriptome; upregulated gene T27A3.2, Affy_ID 192961_at): 2.203
Fold Change (C. elegans transcriptome; upregulated gene T27E4.3, Affy_ID 172901_x_at): 16.0293
Fold Change (C. elegans transcriptome; upregulated gene T28D9.3, Affy_ID 187493_at): 2.783
Fold Change (C. elegans transcriptome; upregulated gene VZK822L.1, Affy_ID 187997_s_at): 2.806
Fold Change (C. elegans transcriptome; upregulated gene W01F3.2, Affy_ID 173274_s_at): 7.505
Fold Change (C. elegans transcriptome; upregulated gene W02A2.7, Affy_ID 193943_at): 2.753
Fold Change (C. elegans transcriptome; upregulated gene W03C9.7, Affy_ID 194039_s_at): 2.373
Fold Change (C. elegans transcriptome; upregulated gene W03F8.10, Affy_ID 174843_at): 5.242
Fold Change (C. elegans transcriptome; upregulated gene W03F9.4, Affy_ID 189587_s_at): 16.8516
Fold Change (C. elegans transcriptome; upregulated gene W04A8.4, Affy_ID 178654_s_at): 22.7121
Fold Change (C. elegans transcriptome; upregulated gene W04B5.1, Affy_ID 180966_s_at): 3.157
